Results taken from patent publication US12679878B2, “CRF2 receptor agonists and their use in therapy” (SANOFI, priority 2020, dated 2026).
Like-named read-outs stand apart in the source and are kept apart here. Starred links: 1 amine or outer side, 2 acyl side, 3 side chain; linkers in the order of their positions; H or OH if unused. Non-standard residues stand in square brackets, D forms with d. Residues, ends and D or L forms follow the SMILES beside them. Groups on a side chain read outwards from the residue. *: point of attachment. C18 diacid = O=C(O)CCCCCCCCCCCCCCCCC(=O)*; γGlu = O=C(O)[C@H](CCC(=O)[*:2])N[*:1]; AEEA = NCCOCCOCC(=O)O; Aib = CC(C)(N)C(=O)O

Columns and labels:
[1] = target: T1, human CRF2α receptor (Homo sapiens, UniProt Q13324); assay: cAMP agonism at human CRF2 α receptor in TeloHEAC cells (Example 7); assay type: cell-based; conditions: cAMP HTRF, TeloHEAC cells stably expressing human CRF2 α
T1 construct: expressed in transfected cells; host or cells: TeloHEAC
T1 sequence (Q13324 1-411): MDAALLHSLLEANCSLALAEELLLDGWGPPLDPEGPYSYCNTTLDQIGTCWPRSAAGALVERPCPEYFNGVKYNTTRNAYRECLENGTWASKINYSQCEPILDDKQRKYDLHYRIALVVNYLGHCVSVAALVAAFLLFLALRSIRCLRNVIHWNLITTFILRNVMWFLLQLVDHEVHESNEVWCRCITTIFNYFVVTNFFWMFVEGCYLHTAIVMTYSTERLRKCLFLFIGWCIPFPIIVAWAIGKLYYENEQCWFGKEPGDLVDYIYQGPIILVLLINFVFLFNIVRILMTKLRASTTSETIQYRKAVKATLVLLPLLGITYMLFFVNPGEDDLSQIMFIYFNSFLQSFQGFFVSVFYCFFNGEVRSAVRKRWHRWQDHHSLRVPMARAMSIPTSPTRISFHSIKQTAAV
Summary of the method: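 Percent activation was referenced to 1000 nM UCN2 (100%), and EC50 values taken as concentrations giving half of maximal response. The read-out was a homogeneous time-resolved fluorescence cAMP kit, fluorescence ratio 665/620 nm. Thawed cells (2000/well) saw compound for 30 min at RT in buffer with 2 mM IBMX and 0%/0.1% HSA.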

[2] = target: T2, CRF1R receptor (Homo sapiens, UniProt P34998); assay: cAMP activity at anti-target CRF1R, CHO-K1 cell line clone 2 (Example 19.10); assay type: cell-based; conditions: CRF1R CHO-K1 clone 2; for EC50: 0% HSA, read-out: EC50 [nM] 0% HSA; for Emax: 100% = Sauvagine at 100 nM
T2 construct: host or cells: CHO-K1 clone 2
T2 sequence (P34998 24-415): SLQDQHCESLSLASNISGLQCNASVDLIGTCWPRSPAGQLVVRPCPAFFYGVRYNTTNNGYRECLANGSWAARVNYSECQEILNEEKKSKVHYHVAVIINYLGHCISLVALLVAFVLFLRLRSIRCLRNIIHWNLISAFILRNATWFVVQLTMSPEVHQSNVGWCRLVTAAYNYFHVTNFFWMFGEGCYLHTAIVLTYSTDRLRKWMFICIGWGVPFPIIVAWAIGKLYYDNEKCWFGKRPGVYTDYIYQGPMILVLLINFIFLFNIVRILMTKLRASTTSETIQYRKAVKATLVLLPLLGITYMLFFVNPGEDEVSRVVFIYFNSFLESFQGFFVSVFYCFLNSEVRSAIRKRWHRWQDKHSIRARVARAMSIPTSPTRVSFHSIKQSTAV
Summary of the method: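 A CRF1R-overexpressing CHO-K1 line (clone 2) was grown in F12/10% FBS/G418 and frozen in aliquots before use. The cAMP assay followed the preceding procedure, with 100% activation defined by Sauvagine at 100 nM.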

[3] = 0% HSA, read-out: EC50 [nM], 0% HSA
[4] = 0.1% HSA, read-out: EC50 [nM], 0.1% HSA

In the case of `CC[C@H](C)[C@H](N)C(=O)N[C@H](C(=O)N[C@@H](CC(C)C)C(=O)N[C@@H](CO)C(=O)N[C@@H](CC(C)C)C(=O)N[C@@H](CC(=O)O)C(=O)N[C@H](C(=O)N1CCC[C@H]1C(=O)N[C@H](C(=O)N[C@@H](CCCCN)C(=O)N[C@@H](CC(C)C)C(=O)N[C@@H](CCCCNC(=O)COCCOCCNC(=O)COCCOCCNC(=O)CC[C@H](NC(=O)CCCCCCCCCCCCCCCCC(=O)O)C(=O)O)C(=O)N[C@@H](CCC(N)=O)C(=O)N[C@H](C(=O)N[C@@H](CC(C)C)C(=O)N[C@@H](CC(C)C)C(=O)N[C@@H](CCCCN)C(=O)N[C@@H](CCC(N)=O)C(=O)N[C@@H](CCC(=O)O)C(=O)N[C@@H](CCCNC(=N)N)C(=O)N[C@@H](CCC(N)=O)C(=O)N[C@@H](CCCCN)C(=O)N[C@@H](CCCCN)C(=O)N[C@@H](CCC(N)=O)C(=O)N[C@@H](CCCNC(=N)N)C(=O)N[C@@H](CCC(N)=O)C(=O)N[C@@H](CCC(N)=O)C(=O)N[C@@H](C)C(=O)N[C@@H](CCC(=O)O)C(=O)N[C@@H](CCCCN)C(=O)N[C@@H](CC(N)=O)C(=O)N[C@@H](CCCCN)C(=O)N[C@@H](CCC(N)=O)C(=O)N[C@H](C(=O)N[C@@H](CC(C)C)C(=O)N[C@@H](C)C(=O)N[C@@H](CCC(N)=O)C(=O)N[C@H](C(N)=O)C(C)C)[C@@H](C)CC)[C@@H](C)CC)[C@@H](C)CC)C(C)C)C(C)C` [compound 122] (H-IVLSLDVPIKLK([AEEA-AEEA-γGlu-C18 diacid])QILLKQERQKKQRQQAEKNKQILAQV-NH2; N-terminus assumed), the EC50 [1, 3] is reported as 0.04 nM, the EC50 [1, 4] is reported as 1.71 nM and the EC50 [2] is reported as > 100 nM. For the same compound, the Emax [2] was 6.9%.

For `CC[C@H](C)[C@H](N)C(=O)N[C@H](C(=O)N[C@@H](CC(C)C)C(=O)N[C@@H](CO)C(=O)N[C@@H](CC(C)C)C(=O)N[C@@H](CC(=O)O)C(=O)N[C@H](C(=O)N1CCC[C@H]1C(=O)N[C@H](C(=O)N[C@@H](CCCCN)C(=O)N[C@@H](CC(C)C)C(=O)N[C@@H](CCCCNC(=O)COCCOCCNC(=O)COCCOCCNC(=O)CC[C@H](NC(=O)CCCCCCCCCCCCCCCCC(=O)O)C(=O)O)C(=O)N[C@@H](CCC(N)=O)C(=O)N[C@H](C(=O)N[C@@H](CC(C)C)C(=O)N[C@@H](CC(C)C)C(=O)N[C@@H](CCC(=O)O)C(=O)N[C@@H](CCC(N)=O)C(=O)N[C@@H](C)C(=O)N[C@@H](CCCNC(=N)N)C(=O)N[C@@H](CCC(N)=O)C(=O)N[C@@H](CCCCN)C(=O)NC(C)(C)C(=O)N[C@@H](CCC(N)=O)C(=O)N[C@@H](CCCNC(=N)N)C(=O)N[C@@H](C)C(=O)N[C@@H](CCC(N)=O)C(=O)N[C@@H](C)C(=O)N[C@@H](CCC(=O)O)C(=O)N[C@@H](CCCCN)C(=O)N[C@@H](CC(N)=O)C(=O)N[C@@H](CCCCN)C(=O)N[C@@H](CCCNC(=N)N)C(=O)N[C@H](C(=O)N[C@@H](CC(C)C)C(=O)N[C@@H](CCC(=O)O)C(=O)N[C@@H](CCCNC(=N)N)C(=O)N[C@H](C(N)=O)C(C)C)[C@@H](C)CC)[C@@H](C)CC)[C@@H](C)CC)C(C)C)C(C)C` [compound 123] (H-IVLSLDVPIKLK([AEEA-AEEA-γGlu-C18 diacid])QILLEQARQK[Aib]QRAQAEKNKRILERV-NH2; N-terminus assumed), the EC50 [1, 3] was 0.33 nM, the EC50 [1, 4] was 9.74 nM and the EC50 [2] was > 100 nM. For the same compound, the Emax [2] was 9%.

For `CC[C@H](C)[C@H](N)C(=O)N[C@H](C(=O)N[C@@H](CC(C)C)C(=O)N[C@@H](CO)C(=O)N[C@@H](CC(C)C)C(=O)N[C@@H](CC(=O)O)C(=O)N[C@H](C(=O)N1CCC[C@H]1C(=O)N[C@H](C(=O)N[C@@H](CCCCN)C(=O)N[C@@H](CC(C)C)C(=O)N[C@@H](CCCCNC(=O)COCCOCCNC(=O)COCCOCCNC(=O)CC[C@H](NC(=O)CCCCCCCCCCCCCCCCC(=O)O)C(=O)O)C(=O)N[C@@H](CCC(N)=O)C(=O)N[C@H](C(=O)N[C@@H](CC(C)C)C(=O)N[C@@H](CC(C)C)C(=O)N[C@@H](CCCCN)C(=O)N[C@@H](CCC(N)=O)C(=O)N[C@@H](C)C(=O)N[C@@H](CCCNC(=N)N)C(=O)N[C@@H](CCC(N)=O)C(=O)N[C@@H](CCCCN)C(=O)NC(C)(C)C(=O)N[C@@H](CCC(N)=O)C(=O)N[C@@H](CCCNC(=N)N)C(=O)N[C@@H](C)C(=O)N[C@@H](CCC(N)=O)C(=O)N[C@@H](C)C(=O)N[C@@H](CCC(=O)O)C(=O)N[C@@H](CCCCN)C(=O)N[C@@H](CC(N)=O)C(=O)N[C@@H](CCCCN)C(=O)N[C@@H](CCCNC(=N)N)C(=O)N[C@H](C(=O)N[C@@H](CC(C)C)C(=O)N[C@@H](CCC(=O)O)C(=O)N[C@@H](CCCNC(=N)N)C(=O)N[C@H](C(N)=O)C(C)C)[C@@H](C)CC)[C@@H](C)CC)[C@@H](C)CC)C(C)C)C(C)C` [compound 124] (H-IVLSLDVPIKLK([AEEA-AEEA-γGlu-C18 diacid])QILLKQARQK[Aib]QRAQAEKNKRILERV-NH2; N-terminus assumed), the EC50 [1, 3] was 0.11 nM, the EC50 [1, 4] was 4.37 nM and the EC50 [2] was > 100 nM. The Emax [2] was -2.5%.

In the case of `CC[C@H](C)[C@H](N)C(=O)N[C@H](C(=O)N[C@@H](CC(C)C)C(=O)N[C@@H](CO)C(=O)N[C@@H](CC(C)C)C(=O)N[C@@H](CC(=O)O)C(=O)N[C@H](C(=O)N1CCC[C@H]1C(=O)N[C@H](C(=O)N[C@@H](CCCCN)C(=O)N[C@@H](CC(C)C)C(=O)N[C@@H](CCCCNC(=O)COCCOCCNC(=O)COCCOCCNC(=O)CC[C@H](NC(=O)CCCCCCCCCCCCCCCCC(=O)O)C(=O)O)C(=O)N[C@@H](CCC(N)=O)C(=O)N[C@H](C(=O)N[C@@H](CC(C)C)C(=O)N[C@@H](CC(C)C)C(=O)N[C@@H](CCC(=O)O)C(=O)N[C@@H](CCC(N)=O)C(=O)N[C@@H](C)C(=O)N[C@@H](CCCNC(=N)N)C(=O)N[C@@H](CCC(N)=O)C(=O)N[C@@H](CCCCN)C(=O)NC(C)(C)C(=O)N[C@@H](CCC(N)=O)C(=O)N[C@@H](CCCNC(=N)N)C(=O)N[C@@H](CCC(=O)O)C(=O)N[C@@H](CCC(N)=O)C(=O)N[C@@H](C)C(=O)N[C@@H](CCC(=O)O)C(=O)N[C@@H](CCCCN)C(=O)N[C@@H](CC(N)=O)C(=O)N[C@@H](CCCCN)C(=O)N[C@@H](CCCNC(=N)N)C(=O)N[C@H](C(=O)N[C@@H](CC(C)C)C(=O)N[C@@H](CCC(=O)O)C(=O)N[C@@H](CCCNC(=N)N)C(=O)N[C@H](C(N)=O)C(C)C)[C@@H](C)CC)[C@@H](C)CC)[C@@H](C)CC)C(C)C)C(C)C` [compound 125] (H-IVLSLDVPIKLK([AEEA-AEEA-γGlu-C18 diacid])QILLEQARQK[Aib]QREQAEKNKRILERV-NH2; N-terminus assumed), the EC50 [1, 3] is reported as 0.47 nM, the EC50 [1, 4] is reported as 19.9 nM and the EC50 [2] is reported as > 100 nM. It also gave an Emax [2] of 17.7%.
